Results as given in ChEMBL document CHEMBL1629482, “Synthesis and antitubercular activity of new mefloquine-oxazolidine derivatives” (Eur J Med Chem, 2010).
Values after ≈ are worked out from the molar mass of the structure shown.

Key:
[1] = Cytotoxicity against mouse macrophage assessed as cell viability at 50 uM after 18 hrs by MTT assay; assay type: cell-based; details: mouse macrophages, read-out: Activity
[2] = Cytotoxicity against mouse macrophage assessed as cell viability at 12.5 uM after 18 hrs by MTT assay; assay type: cell-based; details: mouse macrophages, read-out: Activity
[3] = tested on: Mycobacterium tuberculosis; test: Antitubercular activity against Mycobacterium tuberculosis ATCC 27294 by Alamar blue assay; assay type: functional
[4] = Cytotoxicity against mouse macrophage assessed as cell viability at 25 uM after 18 hrs by MTT assay; assay type: cell-based; details: mouse macrophages, read-out: Activity
[5] = tested on: Mycobacterium tuberculosis; test: Antitubercular activity against Mycobacterium tuberculosis; assay type: functional
Mycobacterium avium = test: Antitubercular activity against Mycobacterium avium by Broth micro dilution method; assay type: functional

| Compound | viability at 18 h, 50 µM [1] [%] | viability at 18 h, 12.5 µM [2] [%] | MIC [3] [µM] | viability at 18 h, 25 µM [4] [%] | MIC [5] [µM] | MIC (Mycobacterium avium) [µM] |
| --- | --- | --- | --- | --- | --- | --- |
| O=[N+]([O-])c1cccc(C2O[C@@H](c3cc(C(F)(F)F)nc4c(C(F)(F)F)cccc34)[C@H]3CCCCN23)c1 (stereo partly specified) | 100 | 100 | > 250 | 100 | – | – |
| FC(F)(F)c1cc([C@H]2O[C@@H](c3ccccc3)N3CCCC[C@@H]23)c2cccc(C(F)(F)F)c2n1 | 95 | 100 | 26.8 (≈ 12.5 µg/mL) | 96 | – | – |
| O=[N+]([O-])c1ccccc1C1O[C@@H](c2cc(C(F)(F)F)nc3c(C(F)(F)F)cccc23)[C@H]2CCCCN12 (mixture of isomers) | 100 | 100 | > 250 | 100 | – | – |
| COc1cccc(C2O[C@@H](c3cc(C(F)(F)F)nc4c(C(F)(F)F)cccc34)[C@H]3CCCCN23)c1 (mixture of isomers) | 80 | 100 | 25.2 | 80 | – | – |
| COc1ccc(C2O[C@@H](c3cc(C(F)(F)F)nc4c(C(F)(F)F)cccc34)[C@H]3CCCCN23)cc1 (mixture of isomers) | 100 | 100 | 25.2 | 100 | – | – |
| O=[N+]([O-])c1ccc(C2O[C@@H](c3cc(C(F)(F)F)nc4c(C(F)(F)F)cccc34)[C@H]3CCCCN23)cc1 (mixture of isomers) | 100 | 100 | > 250 | 100 | – | – |
| FC(F)(F)c1cc([C@@H]2OC(c3ccccc3Cl)N3CCCC[C@H]23)c2cccc(C(F)(F)F)c2n1 (mixture of isomers) | 100 | 100 | > 250 | 100 | – | – |
| FC(F)(F)c1cc([C@@H]2OC(c3cccc(Cl)c3)N3CCCC[C@H]23)c2cccc(C(F)(F)F)c2n1 (mixture of isomers) | 90 | 100 | > 250 | 100 | – | – |
| FC(F)(F)c1cc([C@@H]2OC(c3ccc(Cl)cc3)N3CCCC[C@H]23)c2cccc(C(F)(F)F)c2n1 (mixture of isomers) | 100 | 100 | > 250 | 100 | – | – |
| FC(F)(F)c1cc([C@@H]2OC(c3cccc(Br)c3)N3CCCC[C@H]23)c2cccc(C(F)(F)F)c2n1 (mixture of isomers) | 85 | 100 | > 250 | 85 | – | – |
| FC(F)(F)c1cc([C@@H]2OC(c3ccc(Br)cc3)N3CCCC[C@H]23)c2cccc(C(F)(F)F)c2n1 (mixture of isomers) | 100 | 100 | > 250 | 100 | – | – |
| Fc1ccccc1C1O[C@@H](c2cc(C(F)(F)F)nc3c(C(F)(F)F)cccc23)[C@H]2CCCCN12 (mixture of isomers) | 100 | 100 | > 250 | 100 | – | – |
| Fc1ccc(C2O[C@@H](c3cc(C(F)(F)F)nc4c(C(F)(F)F)cccc34)[C@H]3CCCCN23)cc1 (mixture of isomers) | 82 | 93 | 25.8 | 84 | – | – |
| Oc1ccccc1C1O[C@@H](c2cc(C(F)(F)F)nc3c(C(F)(F)F)cccc23)[C@H]2CCCCN12 (mixture of isomers) | 85 | 100 | 25.9 | 85 | – | – |
| Oc1ccc(C2O[C@@H](c3cc(C(F)(F)F)nc4c(C(F)(F)F)cccc34)[C@H]3CCCCN23)cc1 (mixture of isomers) | 80 | 100 | 25.9 | 80 | – | – |
| COc1ccccc1C1O[C@@H](c2cc(C(F)(F)F)nc3c(C(F)(F)F)cccc23)[C@H]2CCCCN12 (mixture of isomers) | 100 | 100 | 12.6 | 100 | – | – |
| CC[C@@H](CO)NCCN[C@@H](CC)CO [ETHAMBUTOL] | – | – | 15.9 (≈ 3.25 µg/mL) | – | – | – |
| OC(c1cc(C(F)(F)F)nc2c(C(F)(F)F)cccc12)C1CCCCN1 (stereo unspecified) [MEFLOQUINE] | 76 | 81 | 33 (≈ 12.5 µg/mL) | 77 | 21.1 (≈ 7.98 µg/mL) | 21.1 (≈ 7.98 µg/mL) |
